Here are results for 3 molecules from patent US20220160824A1, “COMPOUNDS FOR USE IN THE TREATMENT OF PARKINSON'S DISEASE” (UNIVERSITY OF THE WITWATERSRAND, JOHANNESBURG, priority 2018, published 2022).

One experiment relates to HEK293 cells. The experiment in a line: MTT cell viability assay, HEK293 cells treated with α-Synuclein. Type of experiment: cell-based, human. Conditions: for cell viability after α-Synuclein treatment: 200 nM and 500 nM. The source says:
The effects of treatment of cells with a specific substance or protein on cell viability can be determined by the MTT (3-(4,5-dimethylthiazol-2-yl)-2,5-diphenyltetrazolium bromide) assay (Riss et al., 2016). MTT is a tetrazolium salt that is yellow in colour that is converted to the purple formazan crystals by the mitochondrial enzyme succinate dehydrogenase (Stockert et al., 2012). The succinate dehydrogenase is only active in viable cells and therefore only viable cells will convert MTT to formazan (Stockert et al., 2012). The MTT assay was chosen over other cell viability assays, such as the ATP assay, the resoazurin reduction assay and the protease viability marker assay, due to its high throughput screening. For this study, HEK293 cells were first seeded at 1.4×10^4 cells per well in a 24-well plate while SH-SY5Y cells were seeded at 1.8×10^4 due to a slower growth rate. The cells were then incubated overnight to allow reattachment. Cells were then treated with 200 nM and 500 nM α-Synuclein, in order to induce a PD-like state. Following treatment, the cells were incubated for 48 hours to determine the effects of α-Synuclein on cell viability […]. The known apoptosis inducer, protocatechuic acid (PCA) was used as the positive control. Following incubation, 200 μl of […] was then added to each well and incubated for 2 hours at 37° C. to allow the formation of formazan crystals. The remaining MTT was discarded and the formazan crystals were dissolved by the addition of 200 μl dimethyl sulfoxide (DMSO). The samples were then added to a 96-well plate at 100 μl in duplicates and the absorbance was read at 570 nm using an ELISA plate reader. High absorbance is indicative of a high number of viable cells.
Statistical evaluation of the data was conducted by performing the […] with a confidence interval of 95% and as a result, results were considered significant when the p-value was lower than 0.05 was considered significant (*p<0.05, **p<0.01 and ***p<0.001) (Johnston, 1970).
On the technique in general: Tetrazolium assays rely on reduction of a dye to a coloured formazan, in cell work by metabolically active cells.

A further experiment has as its system SH-SY5Y cells. The experiment in a line: MTT cell viability assay, SH-SY5Y cells treated with α-Synuclein. The following applies: for cell viability after α-Synuclein treatment: 200 nM and 500 nM. The class given is cell-based. The source says:
The HEK293 cell line was used as it is commonly used in Parkinson's disease (PD) research (Schlachetzki et al., 2013). The cell culture media was made up from Dulbecco's Modified Eagle Medium (DMEM) (Hyclone) and Ham's F12 with a ratio of 1:1. The mixture was supplement with 1% penicillin/streptomycin (P/S) and 15% foetal bovine serum […] to create a supplemented media that will provide the cells with essential nutrients that include growth factors and P/S to prevent contamination with bacteria and fungi. The nutrient media was renewed when it was required. The cells were cultured at in an incubator, that maintains the humidity, pH, at 37° C. and 5% CO2 atmospheric composition to mimic in vivo conditions. Once the cells reached a confluency of 80%, they were passaged by washing with phosphate-buffered saline (PBS) followed by resuspension by the addition of trypsin-EDTA. Once the cells were re-suspended media was added to inactivate the trypsin and the cell suspension was diluted into a new flask. Fresh media was added to both flasks. Both transfected and non-transfected cells were harvested for further applications. […] SH-SY5Y cells were also received after transfection was confirmed. The cells were maintained in the same conditions as the HEK293 cells. The SH-SY5Y cells were used for the […] cell viability assay. LRP::FLAG overexpressing HEK293 cells in the presence of 1-Methyl-4-phenylpyridinium iodide (MPP+), a PD inducer, was also investigated. Late stage colorectal carcinoma cells (DLD-1) cells were used for certain confocal microscopy studies with parkin protein.
The effects of treatment of cells with a specific substance or protein on cell viability can be determined by the MTT (3-(4,5-dimethylthiazol-2-yl)-2,5-diphenyltetrazolium bromide) assay (Riss et al., 2016). […] The samples were then added to a 96-well plate at 100 μl in duplicates and the absorbance was read at 570 nm using an ELISA plate reader. High absorbance is indicative of a high number of viable cells. […]

Experiment [1] concerns the target 37 kDa/67 kDa laminin receptor precursor/high affinity laminin receptor (LRP/LR) (human) (UniProt P08865). The experiment in a line: cell-based or functional assay.

parkin, sequence (O60260 whole entry): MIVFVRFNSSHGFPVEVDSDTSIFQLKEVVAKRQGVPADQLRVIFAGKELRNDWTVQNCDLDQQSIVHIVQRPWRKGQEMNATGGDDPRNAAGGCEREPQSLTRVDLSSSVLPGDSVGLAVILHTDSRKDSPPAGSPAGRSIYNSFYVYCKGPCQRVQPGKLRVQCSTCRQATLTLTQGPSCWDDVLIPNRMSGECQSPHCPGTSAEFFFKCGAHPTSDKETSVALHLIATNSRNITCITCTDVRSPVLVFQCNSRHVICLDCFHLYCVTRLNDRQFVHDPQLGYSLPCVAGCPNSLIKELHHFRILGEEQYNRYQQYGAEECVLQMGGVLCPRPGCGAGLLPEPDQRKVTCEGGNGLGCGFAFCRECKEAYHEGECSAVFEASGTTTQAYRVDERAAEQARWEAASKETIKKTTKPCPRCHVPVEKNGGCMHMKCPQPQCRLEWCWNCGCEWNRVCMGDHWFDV

In the case of `O=C(O)c1ccc(O)c(O)c1` [PCA, protocatechuic acid], the “cell viability with positive control” value with HEK293 cells (HEK293 transfected and non-transfected cell lines) is listed as “significant decrease”; in the experiment on SH-SY5Y cells (SH-SY5Y transfected and non-transfected cell lines), “significant decrease”.

For α-Synuclein, the “cell viability after α-Synuclein treatment” value is “decreased significantly” in the experiment on HEK293 cells (HEK293 non-transfected cells, 48 hours); “slight decrease” with HEK293 cells (LRP::FLAG overexpressing and non-transfected HEK293 cells); “no decrease” in the experiment with SH-SY5Y cells (LRP::FLAG overexpressing and non-transfected SH-SY5Y cells); “no significant increase or decrease” in the experiment on SH-SY5Y cells (SH-SY5Y non-transfected cells, 48 hours).

In experiment [1], “parkin (from UniProt O60260 1-465) (enzyme)” yielded a percent of LRP colocalizing with parkin, confocal microscopy, DLD-1 cells overexpressing LRP::FLAG (total LRP stained) of 22%; a percent of LRP/LR colocalizing with parkin, confocal microscopy, DLD-1 cells of 54%; a percent of parkin colocalizing with LRP, confocal microscopy, DLD-1 cells overexpressing LRP::FLAG (total LRP stained) of 99%; a percent of parkin colocalizing with LRP/LR, confocal microscopy, DLD-1 cells of 59%.
